Positions of bridges follow the written chain, without caps; N, C: chain ends. Residues, ends and D or L forms follow the SMILES beside them.
Tests used:
[1] = format: physicochemical; details: peptide 1 mg/mL in 9:1 v/v H2O/D2O, heated 20 to 80 °C, 500 MHz 1D 1H NMR
Experimental: A Bruker 500 MHz Avance nuclear magnetic resonance (NMR) spectrometer was used to heat the peptides (1 mg/mL in 9:1 v/v H2O/D2O) and to monitor structural changes at temperatures ranging from 20 to 80 °C. One-dimensional (1D) ^1H NMR spectra and two-dimensional (2D) nuclear Overhauser effect spectroscopy (NOESY) (200 ms mixing time) spectra were acquired and processed using TopSpin 3.5 (Bruker, Billerica, MA, USA) and CCPNMR Analysis 2.4.1 was used in the assignment of the NOE spectra.

[2] = 30 μM peptide, 24 h; for Degradation at pH 12: phosphate buffer pH 12, 37 °C, RP-HPLC trace compared to pH 4
[3] = format: physicochemical; details: 100 °C in water for 30 min, heating block, cooled to 25 °C, C18 RP-HPLC at 215 nm, MALDI-MS of the products
[4] = Human serum isolated from male AB plasma; details: 37 °C, up to 24 h
[5] = phosphate buffer adjusted to pH 12; details: 37 °C, up to 24 h

Compound	1D 1H NMR spectral changes at 80 °C [1]	not cleaved [4]	further results
CC[C@H](C)[C@H](NC(=O)[C@H](CCC(=O)O)NC(=O)[C@H](Cc1ccc(O)cc1)NC(=O)[C@H](CCCCN)NC(=O)[C@@H]1CSSC[C@@H]2NC(=O)[C@H](CCC(N)=O)NC(=O)[C@H](CC(=O)O)NC(=O)[C@H](CC(N)=O)NC(=O)[C@H](CO)NC(=O)[C@@H]3CCCN3C(=O)[C@H](CC(N)=O)NC(=O)[C@@H]3CSSC[C@H](NC(=O)[C@H](C(C)C)NC(=O)[C@H](CC(C)C)NC(=O)[C@H](CC(N)=O)NC(=O)[C@H](CO)NC(=O)[C@H](CO)NC(=O)[C@H](CCCCN)NC(=O)[C@H](CSSC[C@H](NC(=O)[C@@H](N)CCC(=O)O)C(=O)N[C@@H](CC(C)C)C(=O)NCC(=O)N[C@@H](Cc4ccccc4)C(=O)NCC(=O)N[C@@H](CCCCN)C(=O)NCC(=O)N3)NC2=O)C(=O)N[C@@H](CO)C(=O)N[C@@H](CCCNC(=N)N)C(=O)N[C@@H](CCCCN)C(=O)N[C@@H](Cc2c[nH]cn2)C(=O)N[C@@H](CCCNC(=N)N)C(=O)N[C@@H](Cc2c[nH]c3ccccc23)C(=O)N1)C(N)=O [HnTx-IV]	peak broadening and loss of intensity	–	Degradation at pH 12 [2]: completely degraded
CC[C@H](C)[C@H](NC(=O)[C@H](CCC(N)=O)NC(=O)[C@H](Cc1ccc(O)cc1)NC(=O)[C@H](CCCCN)NC(=O)[C@@H]1CSSC[C@@H]2NC(=O)[C@H](CCCCN)NC(=O)[C@H](CC(=O)O)NC(=O)[C@H](CC(N)=O)NC(=O)[C@H](CO)NC(=O)[C@@H]3CCCN3C(=O)[C@H](CC(N)=O)NC(=O)[C@@H]3CSSC[C@H](NC(=O)[C@H](C(C)C)NC(=O)[C@H](CC(C)C)NC(=O)[C@H](CC(N)=O)NC(=O)[C@@H]4CCCN4C(=O)[C@H](CCCNC(=N)N)NC(=O)[C@H](CSSC[C@H](NC(=O)[C@@H](N)CC(=O)O)C(=O)N[C@@H](CC(C)C)C(=O)NCC(=O)N[C@@H](Cc4ccccc4)C(=O)N[C@@H](CC(C)C)C(=O)N[C@@H](Cc4c[nH]c5ccccc45)C(=O)N[C@@H](CCCCN)C(=O)N3)NC2=O)C(=O)N[C@@H](CO)C(=O)N[C@@H](CCCNC(=N)N)C(=O)N[C@@H](CCCCN)C(=O)N[C@@H](CC(=O)O)C(=O)N[C@@H](CCCCN)C(=O)N[C@@H](Cc2c[nH]c3ccccc23)C(=O)N1)C(=O)O [PaurTx-3] (H-DCLGFLWKCNPSNDKCCRPNLVCSRKDKWCKYQI-OH; disulfide 2-17, 9-23, 16-30)	maintained narrow peaks but also showed some loss in intensity	–	Degradation at pH 12 [2]: larger proportion of the folded peptide remaining
CC(C)C[C@@H]1NC(=O)[C@H](Cc2c[nH]cn2)NC(=O)[C@H](CCCCN)NC(=O)[C@@H]2CSSC[C@H](NC(=O)[C@@H](N)[C@@H](C)O)C(=O)N[C@@H](CCCNC(=N)N)C(=O)N[C@@H](Cc3ccc(O)cc3)C(=O)N[C@@H](CC(C)C)C(=O)N[C@@H](Cc3ccccc3)C(=O)NCC(=O)NCC(=O)N[C@H]3CSSC[C@H](NC(=O)[C@H](C)NC1=O)C(=O)N[C@@H](CCCNC(=N)N)C(=O)N[C@@H](CO)C(=O)N[C@@H](CC(=O)O)C(=O)NCC(=O)N[C@@H](CCCCN)C(=O)N[C@@H](Cc1ccc(O)cc1)C(=O)N[C@H](C(=O)N[C@@H](C)C(=O)N[C@@H](Cc1c[nH]c4ccccc14)C(=O)N[C@@H](CC(=O)O)C(=O)NCC(=O)N[C@H](C(=O)N[C@@H](Cc1ccccc1)C(=O)O)[C@@H](C)O)CSSC[C@H](NC(=O)[C@H](CC(=O)O)NC(=O)[C@H](C)NC(=O)[C@H]([C@@H](C)O)NC(=O)[C@H]([C@@H](C)O)NC(=O)[C@H](CCCCN)NC3=O)C(=O)N2 [SgTx-1]	peak broadening and loss of intensity	–	Loss of peptide at pH 2 ([2]; phosphate buffer pH 2, 37 °C, RP-HPLC relative to pH 4): small loss of peptide; Analytical RP-HPLC trace after boiling [3]: minor degradation product; Mass loss of degradation product from native peptide after boiling: 18 Da
DCLGFLWKCNPSNDKCCRPNLVCSRKDKWCKYQI	–	more than 90% peptide remaining after a 24 h incubation	cleaved bond [5]: Q-Ile34, 24 h
DCLGFMRKCIPDNDKCCRPNLVCSRTHKWCKYVF*	–	more than 90% peptide remaining after a 24 h incubation	–
ECLEIFKACNPSNDQCCKSSKLVCSRKTRWCKYQI*	–	more than 90% peptide remaining after a 24 h incubation	–
ECLGFGKGCNPSNDQCCKSSNLVCSRKHRWCKYEI*	–	more than 90% peptide remaining after a 24 h incubation	–

— article PMC5577582 (Toxins, 2017)
